US20230143612A1 (Arbutus Biopharma Corporation, priority 2020, published 2023)

biological target: PD-L1 His protein / PD-1 Fc protein (Homo sapiens, UniProt Q9NZQ7); assay: HTRF Assay (PD-1/PD-L1 interaction); assay type: binding; conditions: PD-L1 His 6 nM, PD-1 Fc 6 nM
Procedure, shortened: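 Compounds tested from 20 μM down to 0.001 μM (3-fold) against 6 nM PD-L1 His and 6 nM PD-1 Fc, 15 min room temperature incubation. Detection after 1 h at room temperature with Tb cryptate anti-6HIS and XL665 anti-human IgG reagents (mixture at 0.35 nM and 6.7 nM), HTRF signal.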

Sequence of PD-L1 His protein / PD-1 Fc protein (Q9NZQ7 19-238 limits assumed): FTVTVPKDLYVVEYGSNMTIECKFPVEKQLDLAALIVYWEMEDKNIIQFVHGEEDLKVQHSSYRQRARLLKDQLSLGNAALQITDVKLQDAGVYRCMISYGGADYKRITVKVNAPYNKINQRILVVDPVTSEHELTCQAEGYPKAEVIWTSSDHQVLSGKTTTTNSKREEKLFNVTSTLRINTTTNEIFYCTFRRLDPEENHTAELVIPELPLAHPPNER

Q: With `COC(=O)[C@H](CO)NCc1cnc2cc(-c3cccc(-c4cccc(-c5ccc(CNC[C@@H]6CCC(=O)N6)c(OC)n5)c4Cl)c3Cl)ccn2c1=O` [Example 101, Methyl ((8-(2,2′-dichloro-3′-(6-methoxy-5-(((((S)-5-oxopyrrolidin-2-yl)methyl)amino)methyl)pyridin-2-yl)-[1,1′-biphenyl]-3-yl)-4-oxo-4H-pyrido[1,2-a]pyrimidin-3-yl)methyl)-L-serinate] as the compound, how does the IC50 read?
A: The IC50 was 2.1 nM.

Q: For `O=C1CC[C@@H](CNCc2cnc3cc(-c4cccc(-c5cccc(-c6ccc7c(n6)OCCN(CCO)C7)c5Cl)c4Cl)ccn3c2=O)N1` [Example 268, (S)-8-(2,2′-Dichloro-3′-(4-(2-hydroxyethyl)-2,3,4,5-tetrahydropyrido[3,2-f][1,4]oxazepin-8-yl)-[1,1′-biphenyl]-3-yl)-3-((((5-oxopyrrolidin-2-yl)methyl)amino)methyl)-4H-pyrido[1,2-a]pyrimidin-4-one], which IC50 is on record?
A: Its IC50 is 710 nM.

Q: `Cc1c(COc2cc(OCc3cncc(C#N)c3)c(CN[C@@](C)(CO)C(=O)O)cc2Cl)cccc1-c1cccc(-c2ccn3c(=O)c(CN[C@@](C)(CO)C(=O)O)cnc3c2)c1C` [Example 7, (S)-2-(((8-(3′-((4-((((S)-2-Carboxy-1-hydroxypropan-2-yl)amino)methyl)-2-chloro-5-((5-cyanopyridin-3-yl)methoxy)phenoxy)methyl)-2,2′-dimethyl-[1,1′-biphenyl]-3-yl)-4-oxo-4H-pyrido[1,2-a]pyrimidin-3-yl)methyl)amino)-3-hydroxy-2-methylpropanoic acid] was tested. Which IC50 did it give?
A: Its IC50 is 0.2 nM.

Q: For `COc1nc(-c2cccc(-c3cccc(-c4ccn5c(=O)c(CN(C)[C@@H](C)C(=O)O)cnc5c4)c3Cl)c2Cl)ccc1CNC[C@@H]1CCC(=O)N1` [Example 190, N-((8-(2,2′-Dichloro-3′-(6-methoxy-5-(((((S)-5-oxopyrrolidin-2-yl)methyl)amino)methyl)pyridin-2-yl)-[1,1′-biphenyl]-3-yl)-4-oxo-4H-pyrido[1,2-a]pyrimidin-3-yl)methyl)-N-methyl-L-alanine], which IC50 is on record?
A: The IC50 was 0.1 nM.

Q: Which IC50 does the source give for `COc1nc(-c2cccc(-c3cccc(-c4ccn5c(=O)c(CNC[C@@H](O)CC(N)=O)cnc5c4)c3Cl)c2Cl)cc(F)c1CNC[C@@H]1CCC(=O)N1` [Example 275, (3S)-4-[[8-[2-Chloro-3-[2-chloro-3-[4-fluoro-6-methoxy-5-[[[(2S)-5-oxopyrrolidin-2-yl]methylamino]methyl]-2-pyridyl]phenyl]phenyl]-4-oxo-pyrido[1,2-a]pyrimidin-3-yl]methylamino]-3-hydroxy-butanamide] here?
A: Its IC50 is 0.1 nM.

Q: How did the IC50 turn out when `COc1nc(-c2cccc(-c3cccc(-c4cc5c(=O)n(C)c(CNC[C@@H]6CCCO6)nn5c4)c3Cl)c2Cl)ccc1CNC[C@@H]1CCC(=O)N1` [Example 474, 6-[2-Chloro-3-[2-chloro-3-[6-methoxy-5-[[[(2S)-5-oxopyrrolidin-2-yl]methylamino]methyl]-2-pyridyl]phenyl]phenyl]-3-methyl-2-[[[(2S)-tetrahydrofuran-2-yl]methylamino]methyl]pyrrolo[2,1-f][1,2,4]triazin-4-one] was run?
A: The IC50 was 21 nM.

Q: Which IC50 does the source give for `COc1nc(-c2cccc(-c3cccc(-c4ccc5c(c4)CNCCN5C)c3Cl)c2Cl)ccc1CNC[C@@H]1CCC(=O)N1` [Example 363, (S)-5-((((6-(2,2′-Dichloro-3′-(1-methyl-2,3,4,5-tetrahydro-1H-benzo[e][1,4]diazepin-7-yl)-[1,1′-biphenyl]-3-yl)-2-methoxypyridin-3-yl)methyl)amino)methyl)pyrrolidin-2-one] here?
A: Its IC50 is 85 nM.

Q: For `COc1nc(-c2cccc(-c3cccc(-c4ccn5c(=O)c(CNC[C@H](C)O)cnc5c4)c3Cl)c2Cl)ccc1CNC[C@@H](C)O` [Example 196, 8-(2,2′-Dichloro-3′-(5-((((R)-2-hydroxypropyl)amino)methyl)-6-methoxypyridin-2-yl)-[1,1′-biphenyl]-3-yl)-3-((((S)-2-hydroxypropyl)amino)methyl)-4H-pyrido[1,2-a]pyrimidin-4-one], which IC50 is on record?
A: The IC50 was 2.8 nM.

Q: `CNC(=O)C[C@H](O)CNCc1cnc2cc(-c3cccc(-c4cccc(-c5ccc(CNC[C@@H]6CCC(=O)N6)c(OC)n5)c4Cl)c3Cl)ccn2c1=O` [Example 292, (3S)-4-[[8-[2-Chloro-3-[2-chloro-3-[6-methoxy-5-[[[(2S)-5-oxopyrrolidin-2-yl]methylamino]methyl]-2-pyridyl]phenyl]phenyl]-4-oxo-pyrido[1,2-a]pyrimidin-3-yl]methylamino]-3-hydroxy-N-methyl-butanamide] was tested. Which IC50 did it give?
A: The IC50 was 0.1 nM.

Q: For `COc1nc(-c2cccc(-c3cccc(-c4ccn5c(=O)c(CNCCNC(C)=O)cnc5c4)c3Cl)c2Cl)ccc1CNCCNC(C)=O` [Example 69, N-(2-(((6-(3′-(3-(((2-Acetamidoethyl)amino)methyl)-4-oxo-4H-pyrido[1,2-a]pyrimidin-8-yl)-2,2′-dichloro-[1,1′-biphenyl]-3-yl)-2-methoxypyridin-3-yl)methyl)amino)ethyl)acetamide], which IC50 is on record?
A: Its IC50 is 1.9 nM.

Q: For `Cc1c(COc2cc(OCc3cncc(C#N)c3)c(CNC[C@H]3CCC(=O)N3)cc2Cl)cccc1-c1cccc(-c2ccn3c(=O)c(CNC[C@H]4CCC(=O)N4)cnc3c2)c1C` [Example 13, 5-((4-Chloro-5-((2,2′-dimethyl-3′-(4-oxo-3-(((((R)-5-oxopyrrolidin-2-yl)methyl)amino)methyl)-4H-pyrido[1,2-a]pyrimidin-8-yl)-[1,1′-biphenyl]-3-yl)methoxy)-2-(((((R)-5-oxopyrrolidin-2-yl)methyl)amino)methyl)phenoxy)methyl)nicotinonitrile], which IC50 is on record?
A: The IC50 was 0.8 nM.

Q: `COc1nc(-c2cccc(-c3cccc(-c4ccn5c(=O)c(CN6CC[C@@H](O)C6)cnc5c4)c3Cl)c2Cl)ccc1CNC[C@@H]1CCC(=O)N1` [Example 169, 8-(2,2′-Dichloro-3′-(6-methoxy-5-(((((S)-5-oxopyrrolidin-2-yl)methyl)amino)methyl)pyridin-2-yl)-[1,1′-biphenyl]-3-yl)-3-(((R)-3-hydroxypyrrolidin-1-yl)methyl)-4H-pyrido[1,2-a]pyrimidin-4-one] was tested. Which IC50 did it give?
A: Its IC50 is 0.4 nM.

Q: Which IC50 does the source give for `COc1nc(-c2cccc(-c3cccc(-c4ccn5c(=O)c(CNCCO)cnc5c4)c3Cl)c2Cl)cc(Cl)c1CNC[C@@H]1CCC(=O)N1` [Example 378, (S)-8-(2,2′-Dichloro-3′-(4-chloro-6-methoxy-5-((((5-oxopyrrolidin-2-yl)methyl)amino)methyl)pyridin-2-yl)-[1,1′-biphenyl]-3-yl)-3-(((2-hydroxyethyl)amino)methyl)-4H-pyrido[1,2-a]pyrimidin-4-one] here?
A: Its IC50 is 110 nM.

Q: Which IC50 does the source give for `COc1cc(-c2cccc(-c3cccc(-c4ccn5c(=O)c(CNC[C@@H]6CCC(=O)N6)cnc5c4)c3Cl)c2Cl)cc(F)c1CNC[C@@H]1CCC(=O)N1` [Example 104, 8-(2,2′-Dichloro-3″-fluoro-5″-methoxy-4″-(((((S)-5-oxopyrrolidin-2-yl)methyl)amino)methyl)-[1,1′:3′,1″-terphenyl]-3-yl)-3-(((((S)-5-oxopyrrolidin-2-yl)methyl)amino)methyl)-4H-pyrido[1,2-a]pyrimidin-4-one] here?
A: Its IC50 is 8.8 nM.

Q: How did the IC50 turn out when `COc1nc(/C=C2\CCc3c2cccc3-c2cccc(-c3ccn4c(=O)c(CNC[C@@H]5CCC(=O)N5)cnc4c3)c2Cl)c(Cl)cc1CNC[C@@H]1CCC(=O)N1` [Example 177, 8-(2-Chloro-3-((E)-1-((3-chloro-6-methoxy-5-(((((S)-5-oxopyrrolidin-2-yl)methyl)amino)methyl)pyridin-2-yl)methylene)-2,3-dihydro-1H-inden-4-yl)phenyl)-3-(((((S)-5-oxopyrrolidin-2-yl)methyl)amino)methyl)-4H-pyrido[1,2-a]pyrimidin-4-one] was run?
A: Its IC50 is 5 nM.

Q: How did the IC50 turn out when `COc1nc(-c2cccc(-c3cccc(-c4ccn5c(=O)c(CNC[C@H](C)O)c(C)nc5c4)c3Cl)c2Cl)ccc1CNC[C@H](C)O` [Example 181, 8-(2,2′-Dichloro-3′-(5-((((S)-2-hydroxypropyl)amino)methyl)-6-methoxypyridin-2-yl)-[1,1′-biphenyl]-3-yl)-3-((((S)-2-hydroxypropyl)amino)methyl)-2-methyl-4H-pyrido[1,2-a]pyrimidin-4-one] was run?
A: The IC50 was 3.8 nM.

Q: How did the IC50 turn out when `COc1nc(-c2cccc(-c3cccc(-c4ccc5nc(CNC[C@@H](O)CC(=O)N(C)C)cn5n4)c3Cl)c2Cl)ccc1CNC[C@@H]1CCC(=O)N1` [Example 355, (3S)-4-[[6-[2-Chloro-3-[2-chloro-3-[6-methoxy-5-[[[(2S)-5-oxopyrrolidin-2-yl]methylamino]methyl]-2-pyridyl]phenyl]phenyl]imidazo[1,2-b]pyridazin-2-yl]methylamino]-3-hydroxy-N,N-dimethyl-butanamide] was run?
A: Its IC50 is 0.1 nM.

Q: With `COc1nc(-c2cccc(-c3cccc(-c4cc5c(=O)n(C)c(CN(C)CCO)nn5c4)c3Cl)c2Cl)ccc1CNC[C@@H]1CCC(=O)N1` [Example 395, (S)-6-(2,2′-Dichloro-3′-(6-methoxy-5-((((5-oxopyrrolidin-2-yl)methyl)amino)methyl)pyridin-2-yl)-[1,1′-biphenyl]-3-yl)-2-(((2-hydroxyethyl)(methyl)amino)methyl)-3-methylpyrrolo[2,1-f][1,2,4]triazin-4(3H)-one] as the compound, how does the IC50 read?
A: Its IC50 is 6.7 nM.

Q: For `CCc1nc2cc(-c3cccc(-c4cccc(-c5ccc(CNC[C@@H]6CCC(=O)N6)c(OC)n5)c4Cl)c3Cl)ccn2c(=O)c1CNC[C@@H]1CCC(=O)N1` [Example 399, 8-(2,2′-Dichloro-3′-(6-methoxy-5-(((((S)-5-oxopyrrolidin-2-yl)methyl)amino)methyl)pyridin-2-yl)-[1,1′-biphenyl]-3-yl)-2-ethyl-3-(((((S)-5-oxopyrrolidin-2-yl)methyl)amino)methyl)-4H-pyrido[1,2-a]pyrimidin-4-one], which IC50 is on record?
A: Its IC50 is 110 nM.

Q: With `COc1nc(-c2cccc(-c3cccc(-c4ccc5nc(CNC[C@H](C)O)cn5n4)c3Cl)c2Cl)ccc1CNC[C@H](C)O` [Example 340, (2S)-1-[[6-[2-Chloro-3-[2-chloro-3-[2-[[[(2S)-2-hydroxypropyl]amino]methyl]imidazo[1,2-b]pyridazin-6-yl]phenyl]phenyl]-2-methoxy-3-pyridyl]methylamino]propan-2-ol] as the compound, how does the IC50 read?
A: Its IC50 is 3.5 nM.

Q: How did the IC50 turn out when `COc1nc(-c2cccc(-c3cccc(-c4ccn5c(=O)c(CNC6CC7(CCNC7=O)C6)cnc5c4)c3Cl)c2Cl)ccc1CNC[C@@H]1CCC(=O)N1` (single isomer, unassigned) [Example 250] was run?
A: The IC50 was 1 nM.
